Target: 3CL Protease (Severe acute respiratory syndrome coronavirus 2, UniProt P0DTD1)
Experiment: 3CL Protease enzymatic activity assay (BPS Bioscience Assay Kit #78043-1, fluorescence)
Type: biochemical, SARS-CoV-2
Settings: Table A; 30 min preincubation, 40 μM substrate, 4 hours at room temperature; read-out: IC50, nM (3CL Protease enzymatic activity)
In short: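 SARS-CoV-2 3CL protease was preincubated with compound 30 min at room temperature in assay buffer with 1 mM DTT (≤1% DMSO), then 40 μM substrate added for 4 h at room temperature. Fluorescence at 360/460 nm, blank-subtracted; IC50 from % inhibition, with GC376 as inhibitor control.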

| SMILES | IC50 |
| --- | --- |
| CC(C)(C)[C@H](NC(=O)C(F)(F)F)C(=O)N1C[C@H]2[C@@H]([C@H]1C(=O)N[C@H](C#N)Cc1cc3cc(F)c(F)cc3[nH]c1=O)C2(C)C [Compound 177, (1R,2S,5S)—N—((S)-1-Cyano-2-(6,7-difluoro-2-oxo-1,2-dihydroquinolin-3-yl)ethyl)-3-((S)-3,3-dimethyl-2-(2,2,2-trifluoroacetamido)butanoyl)-6,6-dimethyl-3-azabicyclo[3.1.0]hexane-2-carboxamide] | 50 to 100 nM |
| Cc1ccc2[nH]c(=O)c(C[C@@H](C#N)NC(=O)[C@@H]3[C@@H]4[C@H](CN3C(=O)[C@@H](NC(=O)C(F)(F)F)C(C)(C)C)C4(C)C)c(C)c2c1 [Compound 178, (1R,2S,5S)—N—((S)-1-Cyano-2-(4,6-dimethyl-2-oxo-1,2-dihydroquinolin-3-yl)-ethyl)-3-((S)-3,3-dimethyl-2-(2,2,2-trifluoroacetamido)butanoyl)-6,6-dimethyl-3-azabicyclo[3.1.0]hexane-2-carboxamide] | 100 to 250 nM |
| COc1cc2cc(C[C@@H](C#N)NC(=O)[C@@H]3[C@@H]4[C@H](CN3C(=O)[C@@H](NC(=O)C(F)(F)F)C(C)(C)C)C4(C)C)c(=O)[nH]c2cc1C [Compound 179] | 50 to 100 nM |
| CC(C)(C)[C@H](NC(=O)C(F)(F)F)C(=O)N1C[C@H]2[C@@H]([C@H]1C(=O)NC(C#N)Cc1cc3ccccc3[nH]c1=O)C2(C)C (stereo partly drawn) [Compound 182, (1R,2S,5S)-N-[1-cyano-2-(2-oxo-1H-quinolin-3-yl)ethyl]-3-[(2S)-3,3-dimethyl-2-[(2,2,2-trifluoroacetyl)amino]butanoyl]-6,6-dimethyl-3-azabicyclo[3.1.0]hexane-2-carboxamide] | < 50 nM |
| Cc1ccc2[nH]c(=O)c(C[C@@H](C#N)N(C)C(=O)[C@@H]3[C@@H]4[C@H](CN3C(=O)[C@@H](NC(=O)C(F)(F)F)C(C)(C)C)C4(C)C)cc2c1 [Compound 183, (1R,2S,5S)-N-[(1S)-1-cyano-2-(6-methyl-2-oxo-1H-quinolin-3-yl)ethyl]-3-[(2S)-3,3-dimethyl-2-[(2,2,2-trifluoroacetyl)amino]butanoyl]-N,6,6-trimethyl-3-azabicyclo[3.1.0]hexane-2-carboxamide] | ≥ 1000 nM |
| CC(C)(C)[C@H](NC(=O)C(F)(F)F)C(=O)N1C[C@H]2[C@@H]([C@H]1C(=O)N[C@H](C#N)Cc1nc3ccccc3[nH]c1=O)C2(C)C [Compound 185, (1R,2S,5S)—N-[(1S)-1-Cyano-2-(3-oxo-4H-quinoxalin-2-yl)ethyl]-3-[(2S)-3,3-dimethyl-2-[(2,2,2-trifluoroacetyl)amino]butanoyl]-6,6-dimethyl-3-azabicyclo[3.1.0]hexane-2-carboxamide] | < 50 nM |
| CC(C)(C)[C@H](NC(=O)C(F)(F)F)C(=O)N1C[C@H]2[C@@H]([C@H]1C(=O)N[C@@H](C#N)Cc1nc3ccccc3[nH]c1=O)C2(C)C [Compound 186, (1R,2S,5S)—N-[(1R)-1-cyano-2-(3-oxo-4H-quinoxalin-2-yl)ethyl]-3-[(2S)-3,3-dimethyl-2-[(2,2,2-trifluoroacetyl)amino]butanoyl]-6,6-dimethyl-3-azabicyclo[3.1.0]hexane-2-carboxamide] | < 50 nM |
| CN1c2ccccc2NC(=O)C1CC(C#N)NC(=O)[C@@H]1[C@@H]2[C@H](CN1C(=O)[C@@H](NC(=O)C(F)(F)F)C(C)(C)C)C2(C)C (stereo partly drawn) [Compound 187, (1R,2S,5S)—N-[1-Cyano-2-(1-methyl-3-oxo-2,4-dihydroquinoxalin-2-yl)ethyl]-3-[(2S)-3,3-dimethyl-2-[(2,2,2-trifluoroacetyl)amino]butanoyl]-6,6-dimethyl-3-azabicyclo[3.1.0]hexane-2-carboxamide] | ≥ 1000 nM |
| CC(C)(C)[C@H](NS(C)(=O)=O)C(=O)N1C[C@H]2[C@@H]([C@H]1C(=O)N[C@H](C#N)Cc1cc3cnccc3[nH]c1=O)C2(C)C [Compound 188, (1R,2S,5S)—N—((S)-1-Cyano-2-(2-oxo-1,2-dihydro-1,6-naphthyridin-3-yl)ethyl)-3-((S)-3,3-dimethyl-2-(methylsulfonamido)butanoyl)-6,6-dimethyl-3-azabicyclo[3.1.0]hexane-2-carboxamide] | < 50 nM |
| CC(C)(C)[C@H](NS(C)(=O)=O)C(=O)N1C[C@H]2[C@@H]([C@H]1C(=O)N[C@@H](C#N)Cc1cc3cnccc3[nH]c1=O)C2(C)C [Compound 189, (1R,2S,5S)—N—((R)-1-Cyano-2-(2-oxo-1,2-dihydro-1,6-naphthyridin-3-yl)ethyl)-3-((S)-3,3-dimethyl-2-(methylsulfonamido)butanoyl)-6,6-dimethyl-3-azabicyclo[3.1.0]hexane-2-carboxamide] | ≥ 1000 nM |
| Cc1ccc2[nH]c(=O)c(C[C@@H](C#N)NC(=O)[C@@H]3[C@@H]4[C@H](CN3C(=O)Cc3cc(C(F)(F)F)n[nH]3)C4(C)C)cc2c1 [Compound 191, (1R,2S,5S)—N—((S)-1-Cyano-2-(6-methyl-2-oxo-1,2-dihydroquinolin-3-yl)ethyl)-6,6-dimethyl-3-(2-(3-(trifluoromethyl)-1H-pyrazol-5-yl)acetyl)-3-azabicyclo[3.1.0]hexane-2-carboxamide] | ≥ 1000 nM |
| Cc1ccc2[nH]c(=O)c(C[C@@H](C#N)NC(=O)[C@@H]3[C@@H]4[C@H](CN3C(=O)Cc3cc(C)no3)C4(C)C)cc2c1 [Compound 192, (1R,2S,5S)—N—((S)-1-Cyano-2-(6-methyl-2-oxo-1,2-dihydroquinolin-3-yl)ethyl)-6,6-dimethyl-3-(2-(3-methylisoxazol-5-yl)acetyl)-3-azabicyclo[3.1.0]hexane-2-carboxamide] | ≥ 1000 nM |
| Cc1ccc2[nH]c(=O)c(C[C@@H](C#N)NC(=O)[C@@H]3[C@@H]4[C@H](CN3C(=O)Cc3cc(C(F)(F)F)no3)C4(C)C)cc2c1 [Compound 193, (1R,2S,5S)—N—((S)-1-Cyano-2-(6-methyl-2-oxo-1,2-dihydroquinolin-3-yl)ethyl)-6,6-dimethyl-3-(2-(3-(trifluoromethyl)isoxazol-5-yl)acetyl)-3-azabicyclo[3.1.0]hexane-2-carboxamide] | ≥ 1000 nM |
| Cc1ccc2[nH]c(=O)c(C[C@@H](C#N)NC(=O)[C@@H]3[C@@H]4[C@H](CN3C(=O)C(C)c3cc(C(F)(F)F)n[nH]3)C4(C)C)cc2c1 (stereo partly shown) [Compound 194] | ≥ 1000 nM |
| Cc1ccc2[nH]c(=O)c(C[C@@H](C#N)NC(=O)[C@@H]3[C@@H]4[C@H](CN3C(=O)[C@@H](NS(=O)(=O)CC(F)(F)F)C(C)(C)C)C4(C)C)cc2c1 [Compound 195, (1R,2S,5S)—N—((S)-1-Cyano-2-(6-methyl-2-oxo-1,2-dihydroquinolin-3-yl)ethyl)-3-((S)-3,3-dimethyl-2-((2,2,2-trifluoroethyl)sulfonamido)butanoyl)-6,6-dimethyl-3-azabicyclo[3.1.0]hexane-2-carboxamide] | < 50 nM |
| COc1cccc2oc(C(=O)N3C[C@H]4[C@@H]([C@H]3C(=O)N[C@H](C#N)Cc3cc5cc(C)ccc5[nH]c3=O)C4(C)C)cc12 [Compound 196, (1R,2S,5S)—N—((S)-1-Cyano-2-(6-methyl-2-oxo-1,2-dihydroquinolin-3-yl)ethyl)-3-(4-methoxybenzofuran-2-carbonyl)-6,6-dimethyl-3-azabicyclo[3.1.0]hexane-2-carboxamide] | ≥ 1000 nM |
